Source: US20230293526A1, “METHOD FOR TREATING CANCER WITH A REVERSE TRANSCRIPTASE INHIBITOR” (PrimeFour Therapeutics, Inc., priority 2020, published 2023)

Test system: MG63
Experiment: Cell proliferation Ex.3
Format: cell-based
Details: Homo sapiens, MG-63

Measured: IC50

C#C[C@]1(CO)O[C@@H](n2cc(F)c(N)nc2=O)C[C@@H]1O [compound 9]
> 10 µM: MG63, 72 h | MG63, 120 h | MG63, 168 h
